In brackets after ≈: the same amount, converted by molar mass.
Tests used:
[1] = tested on: Staphylococcus aureus (ATCC29213); experiment: In-vitro anti-bacterial activity, microtitre plate assay, IC90 determination (non-mycobacterial strains); type: cell-based; conditions: 90% inhibitory concentration for bacterial growth, resazurin fluorescence; for IC90 STA B29213: 24 hours; for IC90: Staphylococcus aureus, ATCC29213, 24 h, read-out: IC90 STA B29213
Method in brief: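 Inoculum of about 100 TCID50 (10–60 CFU/well) in Mueller-Hinton broth, serial five-fold compound dilutions, 24 h at 37 °C in air. Growth read by resazurin fluorescence (ex 530/em 590 nm); IC90 in μg/ml as 90% growth inhibition.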

[2] = tested on: Mycobacterium smegmatis (ATCC607); experiment: In-vitro anti-bacterial activity against strain M. Smegmatis ATCC607; type: cell-based; conditions: 90% inhibitory concentration for bacterial growth, Alamar Blue fluorescence; for IC90 MSM 607: 48 hours; for IC90: Mycolicibacterium smegmatis, ATCC607, 48 h, read-out: IC90 MSM 607
Method in brief: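 Serial five-fold compound dilutions in BSA-supplemented wells, inoculated with ~250 CFU/well in Mueller-Hinton broth, incubated 48 h at 37 °C, 5% CO2. Growth read by Alamar Blue fluorescence (ex 530/em 590 nm); IC90 in μg/ml.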

Row | IC90 STA B29213 [1] [µg/mL] | melting point [°C] | IC90 MSM 607 [2] [µg/mL] | IC90 [1] [µg/mL] | IC90 [2] [µg/mL] | Structure (SMILES)
1 | 7.12 (≈ 12.6 µM) | 219 | 3.57 (≈ 6.31 µM) | – | – | CCn1c(=O)c(C(c2ccc(Cl)cc2)C2(O)CCNC(Cc3ccccc3)C2)cc2cc(Br)ccc21 (stereo not drawn) [Compound 83]
2 | – | 238 | – | 6.95 (≈ 12.6 µM) | 5.52 (≈ 10 µM) | CN1CCC(O)(C(c2ccc(Cl)cc2)c2cc3cc(Br)ccc3[nH]c2=O)CC1Cc1ccccc1 (stereo not drawn) [Compound 84]
3 | 1.60 (≈ 3.15 µM) | 114 | – | – | 1.01 (≈ 1.99 µM) | COc1nc2ccc(Cl)cc2cc1C(c1ccc(Cl)cc1)C1(O)CCNC(Cc2ccccc2)C1 (stereo not drawn) [Compound 96]
4 | >13.84 | 120 | 13.84 (≈ 25.1 µM) | – | – | COc1nc2ccc(S(C)(=O)=O)cc2cc1C(c1ccc(Cl)cc1)C1(O)CCNC(Cc2ccccc2)C1 (stereo not drawn) [Compound 97]
5 | 7.09 (≈ 12.6 µM) | 143 | 7.09 (≈ 12.6 µM) | – | – | COc1nc2ccc(Br)cc2cc1C(c1ccc(SC)cc1)C1(O)CCNC(Cc2ccccc2)C1 (stereo not drawn) [Compound 100]
6 | 14.96 (≈ 25.1 µM) | 135 | 14.96 (≈ 25.1 µM) | – | – | COc1nc2ccc(Br)cc2cc1C(c1ccc(S(C)(=O)=O)cc1)C1(O)CCNC(Cc2ccccc2)C1 (stereo not drawn) [Compound 103]
7 | – | 160 | – | 1.8 (≈ 3.16 µM) | 1.14 (≈ 2 µM) | COc1nc2ccc(Br)cc2cc1C(c1ccc(Cl)cc1)C1(O)CCNC(c2ccc(F)cc2C)C1 (stereo not drawn) [Compound 104]
8 | 1.80 (≈ 3.16 µM) | 149 | 0.90 (≈ 1.58 µM) | – | – | COc1nc2ccc(Br)cc2cc1C(c1ccc(Cl)cc1)C1(O)CCNC(c2ccc(F)cc2C)C1 (stereo not drawn) [Compound 105]
9 | – | 164 | – | 3 (≈ 6.3 µM) | 3 (≈ 6.3 µM) | COc1nc2ccc(Br)cc2cc1C(c1ccc(Cl)cc1)C1(O)CCNC(C)C1 (stereo not drawn) [Compound 124]
10 | 3.06 (≈ 6.31 µM) | 190 | 2.16 (≈ 4.46 µM) | – | – | COc1nc2ccc(SC)cc2cc1C(c1ccccc1)C1(O)CCNC(Cc2ccccc2)C1 (stereo not drawn) [Compound 142]
11 | – | 183 | – | > 12.6 | > 12.6 | CS(=O)(=O)c1ccc2[nH]c(=O)c(C(c3ccccc3)C3(O)CCNC(Cc4ccccc4)C3)cc2c1 (stereo not drawn) [Compound 153]
12 | >12.63 | 250 | >12.63 | – | – | CS(=O)(=O)c1ccc2[nH]c(=O)c(C(c3ccccc3)C3(O)CCNC(Cc4ccccc4)C3)cc2c1 (stereo not drawn) [Compound 154]
13 | >12.63 | 194 | >12.63 | – | – | CS(=O)(=O)c1ccc2[nH]c(=O)c(C(c3ccccc3)C3(O)CCNC(Cc4ccccc4)C3)cc2c1 (stereo not drawn) [Compound 155]
14 | >12.63 | 254 | 11.25 (≈ 22.4 µM) | – | – | CS(=O)(=O)c1ccc2[nH]c(=O)c(C(c3ccccc3)C3(O)CCNC(Cc4ccccc4)C3)cc2c1 (stereo not drawn) [Compound 156]
15 | – | 100 | – | > 13 | > 13 | COc1nc2ccc(S(C)(=O)=O)cc2cc1C(c1ccccc1)C1(O)CCNC(Cc2ccccc2)C1 (stereo not drawn) [Compound 157]
16 | >12.98 | 198 | >12.98 | – | – | COc1nc2ccc(S(C)(=O)=O)cc2cc1C(c1ccccc1)C1(O)CCNC(Cc2ccccc2)C1 (stereo not drawn) [Compound 158]
17 | 3.17 (≈ 6.31 µM) | 169 | 1.42 (≈ 2.82 µM) | – | – | COc1nc2ccc(SC)cc2cc1C(c1ccccc1)C1(O)CCNC(c2ccc(F)cc2C)C1 (stereo not drawn) [Compound 168]
18 | 7.16 (≈ 12.6 µM) | 161 | 5.69 (≈ 10 µM) | – | – | COc1nc2ccc(S(C)(=O)=O)cc2cc1C(c1cccc(Cl)c1)C1(O)CCNC(c2ccc(F)cc2C)C1 (stereo not drawn) [Compound 171]
19 | 7.16 (≈ 12.6 µM) | 170 | 3.59 (≈ 6.31 µM) | – | – | COc1nc2ccc(S(C)(=O)=O)cc2cc1C(c1cccc(Cl)c1)C1(O)CCNC(c2ccc(F)cc2C)C1 (stereo not drawn) [Compound 172]
20 | 3.30 (≈ 6.31 µM) | 171 | 3.30 (≈ 6.31 µM) | – | – | CSc1ccc2[nH]c(=O)c(C(c3cccc(Cl)c3)C3(O)CCNC(c4ccc(F)cc4C)C3)cc2c1 (stereo not drawn) [Compound 174]
21 | 2.34 (≈ 4.47 µM) | 194 | 3.30 (≈ 6.31 µM) | – | – | CSc1ccc2[nH]c(=O)c(C(c3cccc(Cl)c3)C3(O)CCNC(c4ccc(F)cc4C)C3)cc2c1 (stereo not drawn) [Compound 175]
22 | 3.30 (≈ 6.31 µM) | 192 | 3.30 (≈ 6.31 µM) | – | – | CSc1ccc2[nH]c(=O)c(C(c3cccc(Cl)c3)C3(O)CCNC(c4ccc(F)cc4C)C3)cc2c1 (stereo not drawn) [Compound 176]

Row | IC90 STA B29213 [1] [µg/mL] | melting point [°C] | IC90 MSM 607 [2] [µg/mL] | IC90 [1] [µg/mL] | IC90 [2] [µg/mL] | Structure (SMILES)
23 | 6.15 (≈ 12.6 µM) | > 250 | 4.89 (≈ 10 µM) | – | – | CSc1ccc2[nH]c(=O)c(C(c3ccccc3)C3(O)CCNC(c4ccc(F)cc4C)C3)cc2c1 (stereo not drawn) [Compound 178]
24 | 3.08 (≈ 6.3 µM) | 186 | 3.08 (≈ 6.3 µM) | – | – | CSc1ccc2[nH]c(=O)c(C(c3ccccc3)C3(O)CCNC(c4ccc(F)cc4C)C3)cc2c1 (stereo not drawn) [Compound 180]
25 | 6.15 (≈ 12.6 µM) | 173 | 9.75 (≈ 20 µM) | – | – | CSc1ccc2[nH]c(=O)c(C(c3ccccc3)C3(O)CCNC(c4ccc(F)cc4C)C3)cc2c1 (stereo not drawn) [Compound 181]
26 | – | 172 | – | 13.4 (≈ 25.1 µM) | 13.4 (≈ 25.1 µM) | COc1nc2ccc(S(C)(=O)=O)cc2cc1C(c1ccccc1)C1(O)CCNC(c2ccc(F)cc2C)C1 (stereo not drawn) [Compound 184]
27 | 13.43 (≈ 25.1 µM) | 162 | 8.47 (≈ 15.8 µM) | – | – | COc1nc2ccc(S(C)(=O)=O)cc2cc1C(c1ccccc1)C1(O)CCNC(c2ccc(F)cc2C)C1 (stereo not drawn) [Compound 185]
28 | 9.51 (≈ 17.8 µM) | 166 | 8.47 (≈ 15.8 µM) | – | – | COc1nc2ccc(S(C)(=O)=O)cc2cc1C(c1ccccc1)C1(O)CCNC(c2ccc(F)cc2C)C1 (stereo not drawn) [Compound 186]
29 | >13.43 | 167 | 13.43 (≈ 25.1 µM) | – | – | COc1nc2ccc(S(C)(=O)=O)cc2cc1C(c1ccccc1)C1(O)CCNC(c2ccc(F)cc2C)C1 (stereo not drawn) [Compound 187]
30 | 1.76 (≈ 3.17 µM) | 160 | 2.78 (≈ 5.01 µM) | – | – | COc1nc2ccc(SC)cc2cc1C(c1ccc(Cl)cc1)C1(O)CCNC(Cc2ccc(F)c(F)c2)C1 (stereo not drawn) [Compound 189]
31 | 3.50 (≈ 6.31 µM) | 162 | 3.50 (≈ 6.31 µM) | – | – | COc1nc2ccc(SC)cc2cc1C(c1ccc(Cl)cc1)C1(O)CCNC(Cc2ccc(F)c(F)c2)C1 (stereo not drawn) [Compound 191]
32 | 5.35 (≈ 9.99 µM) | 147 | 5.35 (≈ 9.99 µM) | – | – | COc1nc2ccc(Br)cc2cc1C(c1ccccc1)C1(O)CCNC(c2ccc(F)cc2C)C1 (stereo not drawn) [Compound 193]
33 | 1.69 (≈ 3.16 µM) | 149 | 2.68 (≈ 5.01 µM) | – | – | COc1nc2ccc(Br)cc2cc1C(c1ccccc1)C1(O)CCNC(c2ccc(F)cc2C)C1 (stereo not drawn) [Compound 194]
34 | 3.17 (≈ 6.31 µM) | 153 | 2.00 (≈ 3.98 µM) | – | – | COc1nc2ccc(SC)cc2cc1C(c1ccccc1)C1(O)CCNC(c2ccc(F)cc2C)C1 (stereo not drawn) [Compound 195]
35 | 1.59 (≈ 3.16 µM) | 138 | 1.59 (≈ 3.16 µM) | – | – | COc1nc2ccc(SC)cc2cc1C(c1ccccc1)C1(O)CCNC(c2ccc(F)cc2C)C1 (stereo not drawn) [Compound 197]
36 | 3.17 (≈ 6.31 µM) | 187 | 3.17 (≈ 6.31 µM) | – | – | COc1nc2ccc(SC)cc2cc1C(c1ccccc1)C1(O)CCNC(c2ccc(F)cc2C)C1 (stereo not drawn) [Compound 198]
37 | 7.16 (≈ 12.6 µM) | 192 | 7.16 (≈ 12.6 µM) | – | – | COc1nc2ccc(S(C)(=O)=O)cc2cc1C(c1ccc(Cl)cc1)C1(O)CCNC(c2ccc(F)cc2C)C1 (stereo not drawn) [Compound 199]
38 | 5.69 (≈ 10 µM) | 187 | 5.69 (≈ 10 µM) | – | – | COc1nc2ccc(S(C)(=O)=O)cc2cc1C(c1ccc(Cl)cc1)C1(O)CCNC(c2ccc(F)cc2C)C1 (stereo not drawn) [Compound 200]
39 | 1.80 (≈ 3.16 µM) | 186 | 2.27 (≈ 3.99 µM) | – | – | COc1nc2ccc(S(C)(=O)=O)cc2cc1C(c1ccc(Cl)cc1)C1(O)CCNC(c2ccc(F)cc2C)C1 (stereo not drawn) [Compound 202]
40 | 10.80 (≈ 20 µM) | > 250 | – | – | 6.81 (≈ 12.6 µM) | CSc1ccc2[nH]c(=O)c(C(c3ccc(Cl)cc3)C3(O)CCNC(Cc4ccc(F)c(F)c4)C3)cc2c1 (stereo not drawn) [Compound 203]
41 | – | 150 | – | 14.8 (≈ 25.1 µM) | 7.39 (≈ 12.6 µM) | COc1nc2ccc(S(C)(=O)=O)cc2cc1C(c1ccc(Cl)cc1)C1(O)CCNC(Cc2ccc(F)c(F)c2)C1 (stereo not drawn) [Compound 211]
42 | 7.16 (≈ 12.6 µM) | 152 | 5.69 (≈ 10 µM) | – | – | COc1nc2ccc(S(C)(=O)=O)cc2cc1C(c1ccc(Cl)cc1)C1(O)CCNC(c2ccc(F)cc2C)C1 (stereo not drawn) [Compound 216]
43 | 1.27 (≈ 2.23 µM) | 169 | 0.90 (≈ 1.58 µM) | – | – | COc1nc2ccc(S(C)(=O)=O)cc2cc1C(c1ccc(Cl)cc1)C1(O)CCNC(c2ccc(F)cc2C)C1 (stereo not drawn) [Compound 217]
